Among the data in PubChem BioAssay (NCI) are GI50 and TGI values, retold here.

Test systems include MCF7 breast; KM12 colon; RPMI-8226 leukemia; SR leukemia; MALME-3M melanoma; SF-268 CNS; CAKI-1 renal; HCC-2998 colon.
Experiment in all cases: NCI tumour cell line growth inhibition, 48 h

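Growth conditions: 96-well plates. Treatment: test compound, 48 hours, 5 concentrations. Analysis: linear interpolation between bracketing concentrations; unreached endpoints set to highest concentration. GI50 marks 50% less growth. TGI: concentration producing complete growth inhibition.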

For `CC(C)(C)[OH+][O-].[O-]c1ccc(Cl)cc1C=Nc1ccc(Cl)cc1[O-].[O]=[V]`, the GI50 in the experiment with MCF7 breast was 11.4 µM; in the experiment on KM12 colon, 10.8 µM; in the experiment on RPMI-8226 leukemia, 6.97 µM; in the experiment with SR leukemia, 7.79 µM; with MALME-3M melanoma, 1.81 µM; in the experiment with SF-268 CNS, 23.7 µM. Further, the GI50 in the experiment with CAKI-1 renal was 15.1 µM; in the experiment on HCC-2998 colon, 11.2 µM. The TGI in the experiment with MCF7 breast is 30 µM; in the experiment with KM12 colon, 32 µM; in the experiment with RPMI-8226 leukemia it was greater than 100 µM; in the experiment on SR leukemia it was greater than 100 µM; in the experiment on MALME-3M melanoma, 11.9 µM; with SF-268 CNS it was 69.3 µM. In addition, the TGI in the experiment with CAKI-1 renal is 52.5 µM; in the experiment on HCC-2998 colon, 25.7 µM.

Consider `CC(C)(C)[Si](C)(C)OCC1CCC(n2cnc3c(NC(=O)c4ccccc4)ncnc32)O1` (stereo not drawn), for which the TGI in the experiment on MCF7 breast came out at 45.1 µM; in the experiment on KM12 colon it was 31.3 µM; in the experiment on RPMI-8226 leukemia it was 68.5 µM; with SR leukemia, 53.9 µM; with MALME-3M melanoma it was 34.3 µM; in the experiment with SF-268 CNS it was 33.4 µM. Moreover, the TGI in the experiment with CAKI-1 renal is 46.9 µM; in the experiment with HCC-2998 colon, 36.2 µM.

For `CC(C)C[C@H](NC(=O)[C@H](Cc1ccccc1)n1ccc(N2CCCCC2)cc1=O)B(O)O`, the GI50 in the experiment on MCF7 breast was 0.392 µM; in the experiment on KM12 colon, 1.33 µM; with RPMI-8226 leukemia, 0.321 µM; with SR leukemia it was 0.259 µM; in the experiment with MALME-3M melanoma, 0.682 µM; with SF-268 CNS, 0.699 µM. Further, the GI50 with CAKI-1 renal is 0.467 µM; with HCC-2998 colon, 1.14 µM. The TGI in the experiment on MCF7 breast was greater than 100 µM; in the experiment with KM12 colon, 4.38 µM; in the experiment with RPMI-8226 leukemia, greater than 100 µM; in the experiment on SR leukemia, 11.6 µM; with MALME-3M melanoma it was 7.95 µM; with SF-268 CNS it was 3.85 µM. The TGI amounted to 10 µM with CAKI-1 renal and 3.09 µM in the experiment with HCC-2998 colon.

`O=C1/C(=C/c2cccc([N+](=O)[O-])c2)COc2ccc(O)c(O)c21`: the GI50 is 0.665 µM with MCF7 breast; 1.68 µM with KM12 colon; 0.301 µM in the experiment on RPMI-8226 leukemia; 0.364 µM with SR leukemia; 1.49 µM in the experiment on MALME-3M melanoma; 1.79 µM with SF-268 CNS. Moreover, the GI50 in the experiment on CAKI-1 renal was 1.27 µM; in the experiment with HCC-2998 colon, 1.66 µM. Also, the TGI in the experiment with MCF7 breast stood at 2.96 µM; in the experiment with KM12 colon, 3.4 µM; in the experiment with RPMI-8226 leukemia it was 0.93 µM; in the experiment on SR leukemia, 7.94 µM; with MALME-3M melanoma it was 3.04 µM; in the experiment on SF-268 CNS it was 4.3 µM. The TGI in the experiment with CAKI-1 renal amounted to 2.59 µM; with HCC-2998 colon, 3.22 µM.

As for `Cc1ccc(NC(c2ccccc2)c2ccc3cccnc3c2O)cc1` (stereo not drawn), the TGI stood at 16.2 µM in the experiment with MCF7 breast; 19.1 µM with KM12 colon; 19.2 µM with RPMI-8226 leukemia; 14.4 µM in the experiment on SR leukemia; 13.8 µM in the experiment with MALME-3M melanoma; 13.6 µM with SF-268 CNS. For the same molecule, the results for the TGI in the experiment with CAKI-1 renal and with HCC-2998 colon were 16.4 µM and greater than 100 µM, respectively.

Consider `Cn1ccnc1C(=O)/C=C/c1ccc(CC(=O)Nc2ccc(Cl)cc2)cc1`, for which the GI50 with MCF7 breast was 0.891 µM; in the experiment with KM12 colon it was 1.51 µM; in the experiment with RPMI-8226 leukemia it was 0.959 µM; in the experiment with MALME-3M melanoma it was 14.2 µM; in the experiment with SF-268 CNS, 1.24 µM; with CAKI-1 renal, 13.5 µM. In addition, in the experiment on HCC-2998 colon, the GI50 is 3.42 µM. Besides, the TGI in the experiment with MCF7 breast, with KM12 colon, with RPMI-8226 leukemia, with MALME-3M melanoma, in the experiment on SF-268 CNS and with CAKI-1 renal was greater than 25 µM in each case. Besides, in the experiment with HCC-2998 colon, the TGI is greater than 25 µM.

On to `CN(C)CCNC(=O)c1ccc(Nc2nc3ccccc3c3occc23)cc1`, for which the GI50 with MCF7 breast is 49.3 µM; in the experiment with KM12 colon it was 1.89 µM; in the experiment with RPMI-8226 leukemia, 2.9 µM; with SF-268 CNS it was 63.7 µM; in the experiment on CAKI-1 renal it was 2.18 µM; with HCC-2998 colon it was 1.62 µM. Also, the TGI is greater than 100 µM with MCF7 breast; 4.15 µM with KM12 colon; 9.05 µM in the experiment on RPMI-8226 leukemia; greater than 100 µM in the experiment with SF-268 CNS; 4.95 µM with CAKI-1 renal; 3.07 µM in the experiment on HCC-2998 colon.

For `O=C1c2ccccc2-c2c1c1ccccc1c(=O)n2Cc1ccco1`, the TGI in the experiment with MCF7 breast, in the experiment on KM12 colon, in the experiment on RPMI-8226 leukemia, in the experiment on SR leukemia, with MALME-3M melanoma and with SF-268 CNS was greater than 100 µM each time. In the experiment with CAKI-1 renal, this molecule had a TGI greater than 100 µM.

Consider `CN(N=O)C(=O)Nc1c[nH]c(=O)[nH]c1=O`, for which the TGI in the experiment on MCF7 breast, in the experiment with KM12 colon, with MALME-3M melanoma, in the experiment with CAKI-1 renal and in the experiment on HCC-2998 colon was greater than 100 µM throughout.

In the case of `Cn1c(C(N)=O)cc2c1-c1nc(Nc3ccccc3)ncc1CCC2`, the GI50 is 4.41 µM with MCF7 breast; 1.48 µM in the experiment on KM12 colon; 4.47 µM in the experiment on SR leukemia; 7.63 µM in the experiment with MALME-3M melanoma; 5.52 µM in the experiment with SF-268 CNS; 2.11 µM with CAKI-1 renal. In the experiment on HCC-2998 colon, the GI50 was 10.3 µM. For the same molecule, the TGI is greater than 100 µM in the experiment on MCF7 breast; 18.3 µM in the experiment with KM12 colon; 33.1 µM with SR leukemia; 57 µM with MALME-3M melanoma; greater than 100 µM in the experiment with SF-268 CNS; 15.9 µM with CAKI-1 renal. For the same molecule, the TGI in the experiment with HCC-2998 colon was found to be 33.3 µM.

Turning to `OCCN(CCO)N=Nc1ccc(-c2nc3ccccc3[nH]2)cc1`, the GI50 in the experiment with KM12 colon is 16.3 µM; with RPMI-8226 leukemia, 21.3 µM; in the experiment on SR leukemia it was 20.3 µM; in the experiment on SF-268 CNS it was 3.31 µM; in the experiment on CAKI-1 renal, 17 µM. Moreover, the TGI is 55.4 µM with KM12 colon; 52.4 µM with RPMI-8226 leukemia; 58.2 µM in the experiment on SR leukemia; 40.5 µM in the experiment with SF-268 CNS; 60.6 µM in the experiment on CAKI-1 renal.

With `Cc1ccc(C)c(NC(=O)C(=O)C(c2cnc3ccc([N+](=O)[O-])cc3n2)[N+](=O)[O-])c1` (stereo not drawn), the TGI in the experiment with MCF7 breast was greater than 100 µM; with KM12 colon it was greater than 100 µM; in the experiment on RPMI-8226 leukemia, 39.4 µM; in the experiment with SR leukemia it was greater than 100 µM; with MALME-3M melanoma it was greater than 100 µM; with SF-268 CNS, greater than 100 µM. The same molecule gave a TGI with HCC-2998 colon greater than 100 µM.
